Measured values taken from US8828995B2, “Branched oxathiazine derivatives, method for the production thereof, use thereof as medicine and drug containing said derivatives and use thereof” (Sanofi, priority 2011, dated 2014).

Biological target: human 11β-HSD1 microsome fraction (Homo sapiens, UniProt P28845)
Assay: Enzymatic 11beta-HSD1 test (SPA-based detection)
Details: IC50 (nM), Biological activity, [1,2-3H]-cortisone, 0.25 mM NADPH, 37° C. for 1 hour
Experimental: Enzymatic 11beta-HSD1 test:
Protein and radioactive substrate were dispensed with a Biomek FX unit (Beckman Coulter) for handling liquids. The test compounds were added with a Cybi-Well equipped with a 90 nl pin tool (CyBio).

human 11β-HSD1 microsome fraction, sequence (P28845 whole entry): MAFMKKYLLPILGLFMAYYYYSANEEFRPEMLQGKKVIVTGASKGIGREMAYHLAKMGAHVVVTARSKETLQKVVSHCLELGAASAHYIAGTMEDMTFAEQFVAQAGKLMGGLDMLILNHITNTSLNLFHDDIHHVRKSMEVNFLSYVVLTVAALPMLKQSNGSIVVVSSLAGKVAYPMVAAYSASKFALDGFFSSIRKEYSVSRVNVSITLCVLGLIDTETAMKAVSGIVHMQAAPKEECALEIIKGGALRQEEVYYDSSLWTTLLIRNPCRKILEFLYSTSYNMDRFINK

| Structure (SMILES) | IC50 |
| --- | --- |
| O=S1(=O)N=C(N[C@@H](CCO)c2ccccc2)OC2CCC(F)(F)CC21 (stereo partly drawn) [Example 28, (S)-3-(7,7-Difluoro-1,1-dioxo-4a,5,6,7,8,8a-hexahydro-1H-1lambda6-benzo[1,4,3]oxathiazin-3-ylamino)-3-phenyl-propan-1-ol] | 445 nM |
| O=S1(=O)N=C(N[C@@H](CO)Cc2ccccc2)OC2CCCCC21 (stereo partly drawn) [Example 2, (R)-2-(−1,1-Dioxo-4a,5,6,7,8,8a-hexahydro-1H-1lambda6-benzo[1,4,3]oxathiazin-3-ylamino)-3-phenyl-propan-1-ol] | 575 nM |
| CC12CCCCC1(C)S(=O)(=O)N=C(N[C@@H](CCO)c1ccccc1)O2 (single isomer, unassigned) [Example 32] | 4 nM |
| NS(=O)(=O)CC(NC1=NS(=O)(=O)[C@@H]2CCCC[C@@H]2O1)c1ccccc1 (stereo partly drawn) [Example 30, 2-((4aS,8aR)-1,1-Dioxo-4a,5,6,7,8,8a-hexahydro-1H-1lambda6-benzo[1,4,3]oxathiazin-3-ylamino)-2-phenyl-ethanesulfonamide] | 11 nM |
| CC12CCCCC1(C)S(=O)(=O)N=C(N[C@@H](CCO)c1cccnc1)O2 (single isomer, unassigned) [Example 34] | 353 nM |
| CC12CCCCC1(C)S(=O)(=O)N=C(N[C@@H](CCO)c1cccnc1)O2 (single isomer, unassigned) [Example 33] | 9 nM |
| CC12CCCCC1(C)S(=O)(=O)N=C(N[C@@H](CCO)c1ccccc1)O2 (single isomer, unassigned) [Example 31] | 34 nM |
| NS(=O)(=O)CC(NC1=NS(=O)(=O)[C@@H]2CCCC[C@@H]2O1)c1ccccc1 (stereo partly drawn) [Example 29, 2-((4aS,8aR)-1,1-Dioxo-4a,5,6,7,8,8a-hexahydro-1H-1lambda6-benzo[1,4,3]oxathiazin-3-ylamino)-2-phenyl-ethanesulfonamide] | 15 nM |

Other lines, results leading:

| IC50 | Structure (SMILES) |
| --- | --- |
| 4 nM | O=S1(=O)N=C(N[C@@H](CCO)c2ccc(F)cc2)OC2CCCCC21 (stereo partly drawn) [Example 18, (S)-3-(−1,1-Dioxo-4a,5,6,7,8,8a-hexahydro-1H-1lambda6-benzo[1,4,3]oxathiazin-3-ylamino)-3-(4-fluoro-phenyl)-propan-1-ol] |
| 24 nM | O=S1(=O)N=C(N[C@H](CO)Cc2ccccc2)OC2CCCCC21 (stereo partly drawn) [Example 3, (S)-2-(−1,1-Dioxo-4a,5,6,7,8,8a-hexahydro-1H-1lambda6-benzo[1,4,3]oxathiazin-3-ylamino)-3-phenyl-propan-1-ol] |
| 25 nM | O=S1(=O)N=C(N[C@@H](CCO)c2cccnc2)O[C@H]2CCCC[C@H]21 [Example 25, (S)-3-((4aS,8aR)-1,1-Dioxo-4a,5,6,7,8,8a-hexahydro-1H-1lambda6-benzo[1,4,3]oxathiazin-3-ylamino)-3-pyridin-3-yl-propan-1-ol] |
| 11 nM | O=S1(=O)N=C(N[C@@H](CCO)c2ccc(F)cc2)OC2CCCCC21 (single isomer, unassigned) [Example 19] |
| 5 nM | O=S1(=O)N=C(N[C@@H](CCO)c2ccc(F)cc2)OC2CCCCC21 (stereo partly drawn) [Example 9, (S)-3-(−1,1-Dioxo-4a,5,6,7,8,8a-hexahydro-1H-1lambda6-benzo[1,4,3]oxathiazin-3-ylamino)-3-(4-fluoro-phenyl)-propan-1-ol] |
| 742 nM | O=S1(=O)N=C(N[C@@H](CCO)c2ccccc2)OC2CCOCC21 (single isomer, unassigned) [Example 26] |
| 13 nM | O=S1(=O)N=C(N[C@@H](CCO)c2ccc(F)cc2)OC2CCCCC21 (single isomer, unassigned) [Example 20] |
| 104 nM | O=S1(=O)N=C(N[C@@H](CCO)c2cccc(F)c2)OC2CCCCC21 (stereo partly drawn) [Example 10, (S)-3-(−1,1-Dioxo-4a,5,6,7,8,8a-hexahydro-1H-1lambda6-benzo[1,4,3]oxathiazin-3-ylamino)-3-(3-fluoro-phenyl)-propan-1-ol] |
| 62 nM | O=S1(=O)N=C(N[C@@H](CCO)c2ccccc2)OC2CCOCC21 (single isomer, unassigned) [Example 27] |
| 27 nM | O=S1(=O)N=C(N[C@@H](CCO)c2cccc(F)c2)OC2CCCCC21 (stereo partly drawn) [Example 17, (S)-3-(−1,1-Dioxo-4a,5,6,7,8,8a-hexahydro-1H-1lambda6-benzo[1,4,3]oxathiazin-3-ylamino)-3-(3-fluoro-phenyl)-propan-1-ol] |
